Laboratory results taken from ChEMBL document CHEMBL3608217, “Discovery of novel bridged tetrahydronaphthalene derivatives as potent T/L-type calcium channel blockers” (Bioorg Med Chem Lett, 2015).
In brackets after ≈: the same amount, converted by molar mass. Each block holds one molecule with its values, some of them ahead of it.

Experiments:
[1] = molecular target: Voltage-dependent T-type calcium channel subunit alpha-1H (Homo sapiens, UniProt O95180); test: Inhibition of recombinant Cav3.2 channel (unknown origin) expressed in HEK293 cells assessed as effect on calcium flux incubated for 3 mins by FLIPR assay; format: cell-based
Chain of Voltage-dependent T-type calcium channel subunit alpha-1H (O95180 whole entry): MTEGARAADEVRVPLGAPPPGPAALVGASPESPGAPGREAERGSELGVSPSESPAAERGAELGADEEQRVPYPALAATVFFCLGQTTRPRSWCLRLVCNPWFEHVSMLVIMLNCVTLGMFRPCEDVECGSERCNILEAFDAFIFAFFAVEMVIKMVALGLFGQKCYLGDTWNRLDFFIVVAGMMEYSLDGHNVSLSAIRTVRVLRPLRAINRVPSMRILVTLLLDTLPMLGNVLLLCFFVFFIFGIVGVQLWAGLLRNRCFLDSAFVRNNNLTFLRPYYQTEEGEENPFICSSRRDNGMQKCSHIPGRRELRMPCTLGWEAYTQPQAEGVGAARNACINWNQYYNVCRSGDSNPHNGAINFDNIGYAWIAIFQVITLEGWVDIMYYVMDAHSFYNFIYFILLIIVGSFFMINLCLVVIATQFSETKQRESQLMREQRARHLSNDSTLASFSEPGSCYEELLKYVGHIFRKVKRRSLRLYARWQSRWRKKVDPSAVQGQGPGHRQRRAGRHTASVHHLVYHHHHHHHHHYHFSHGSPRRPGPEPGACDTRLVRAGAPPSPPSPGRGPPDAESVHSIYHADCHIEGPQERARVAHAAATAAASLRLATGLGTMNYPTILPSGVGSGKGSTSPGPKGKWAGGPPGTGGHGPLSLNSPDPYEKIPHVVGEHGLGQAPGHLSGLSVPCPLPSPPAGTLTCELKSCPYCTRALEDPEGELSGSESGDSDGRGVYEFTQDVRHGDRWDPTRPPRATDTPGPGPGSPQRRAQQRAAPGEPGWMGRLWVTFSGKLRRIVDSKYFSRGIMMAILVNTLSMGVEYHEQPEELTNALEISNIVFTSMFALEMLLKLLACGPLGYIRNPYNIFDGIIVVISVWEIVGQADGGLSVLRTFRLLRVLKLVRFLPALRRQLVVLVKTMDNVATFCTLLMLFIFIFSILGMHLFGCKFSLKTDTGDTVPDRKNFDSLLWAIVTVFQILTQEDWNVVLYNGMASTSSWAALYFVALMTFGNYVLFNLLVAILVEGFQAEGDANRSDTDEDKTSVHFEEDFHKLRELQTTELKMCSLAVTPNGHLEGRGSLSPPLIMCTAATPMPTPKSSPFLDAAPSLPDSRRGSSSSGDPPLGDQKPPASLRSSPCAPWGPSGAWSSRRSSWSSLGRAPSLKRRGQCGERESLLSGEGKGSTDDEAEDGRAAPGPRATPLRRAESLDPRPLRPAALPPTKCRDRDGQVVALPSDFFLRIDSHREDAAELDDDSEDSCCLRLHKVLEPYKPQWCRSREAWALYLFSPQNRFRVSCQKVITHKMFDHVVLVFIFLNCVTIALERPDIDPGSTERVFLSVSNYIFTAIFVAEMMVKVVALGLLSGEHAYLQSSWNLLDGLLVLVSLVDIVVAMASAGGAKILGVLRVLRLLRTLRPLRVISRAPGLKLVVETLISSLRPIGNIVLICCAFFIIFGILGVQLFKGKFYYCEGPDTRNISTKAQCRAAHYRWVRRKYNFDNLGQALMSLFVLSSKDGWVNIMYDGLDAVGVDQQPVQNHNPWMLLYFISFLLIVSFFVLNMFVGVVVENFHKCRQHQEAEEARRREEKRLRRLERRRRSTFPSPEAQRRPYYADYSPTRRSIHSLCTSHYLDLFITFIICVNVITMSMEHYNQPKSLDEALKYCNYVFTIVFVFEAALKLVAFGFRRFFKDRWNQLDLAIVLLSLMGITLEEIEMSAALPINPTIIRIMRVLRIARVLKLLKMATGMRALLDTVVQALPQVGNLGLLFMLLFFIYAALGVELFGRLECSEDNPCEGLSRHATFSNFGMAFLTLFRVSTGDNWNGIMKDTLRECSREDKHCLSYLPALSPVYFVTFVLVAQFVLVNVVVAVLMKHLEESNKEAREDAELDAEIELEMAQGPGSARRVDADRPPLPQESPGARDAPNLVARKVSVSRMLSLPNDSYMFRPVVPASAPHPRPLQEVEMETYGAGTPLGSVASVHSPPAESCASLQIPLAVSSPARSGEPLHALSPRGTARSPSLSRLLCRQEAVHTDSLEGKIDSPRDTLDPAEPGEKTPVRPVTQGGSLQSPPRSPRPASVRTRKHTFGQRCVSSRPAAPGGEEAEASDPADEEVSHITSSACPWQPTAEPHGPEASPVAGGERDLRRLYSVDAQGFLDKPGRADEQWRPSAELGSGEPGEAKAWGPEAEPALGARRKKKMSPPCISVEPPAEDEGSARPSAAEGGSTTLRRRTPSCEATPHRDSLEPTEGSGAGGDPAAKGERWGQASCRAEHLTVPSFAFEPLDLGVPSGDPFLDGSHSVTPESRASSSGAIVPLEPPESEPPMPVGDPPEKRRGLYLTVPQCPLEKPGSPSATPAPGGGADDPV

[2] = molecular target: Voltage-dependent L-type calcium channel subunit alpha-1C (Homo sapiens, UniProt Q13936); test: Inhibition of recombinant Cav1.2 channel (unknown origin) expressed in HEK293 cells assessed as effect on calcium flux incubated for 3 mins by FLIPR assay; format: cell-based
Chain of Voltage-dependent L-type calcium channel subunit alpha-1C (Q13936 whole entry, the tested form may be a part): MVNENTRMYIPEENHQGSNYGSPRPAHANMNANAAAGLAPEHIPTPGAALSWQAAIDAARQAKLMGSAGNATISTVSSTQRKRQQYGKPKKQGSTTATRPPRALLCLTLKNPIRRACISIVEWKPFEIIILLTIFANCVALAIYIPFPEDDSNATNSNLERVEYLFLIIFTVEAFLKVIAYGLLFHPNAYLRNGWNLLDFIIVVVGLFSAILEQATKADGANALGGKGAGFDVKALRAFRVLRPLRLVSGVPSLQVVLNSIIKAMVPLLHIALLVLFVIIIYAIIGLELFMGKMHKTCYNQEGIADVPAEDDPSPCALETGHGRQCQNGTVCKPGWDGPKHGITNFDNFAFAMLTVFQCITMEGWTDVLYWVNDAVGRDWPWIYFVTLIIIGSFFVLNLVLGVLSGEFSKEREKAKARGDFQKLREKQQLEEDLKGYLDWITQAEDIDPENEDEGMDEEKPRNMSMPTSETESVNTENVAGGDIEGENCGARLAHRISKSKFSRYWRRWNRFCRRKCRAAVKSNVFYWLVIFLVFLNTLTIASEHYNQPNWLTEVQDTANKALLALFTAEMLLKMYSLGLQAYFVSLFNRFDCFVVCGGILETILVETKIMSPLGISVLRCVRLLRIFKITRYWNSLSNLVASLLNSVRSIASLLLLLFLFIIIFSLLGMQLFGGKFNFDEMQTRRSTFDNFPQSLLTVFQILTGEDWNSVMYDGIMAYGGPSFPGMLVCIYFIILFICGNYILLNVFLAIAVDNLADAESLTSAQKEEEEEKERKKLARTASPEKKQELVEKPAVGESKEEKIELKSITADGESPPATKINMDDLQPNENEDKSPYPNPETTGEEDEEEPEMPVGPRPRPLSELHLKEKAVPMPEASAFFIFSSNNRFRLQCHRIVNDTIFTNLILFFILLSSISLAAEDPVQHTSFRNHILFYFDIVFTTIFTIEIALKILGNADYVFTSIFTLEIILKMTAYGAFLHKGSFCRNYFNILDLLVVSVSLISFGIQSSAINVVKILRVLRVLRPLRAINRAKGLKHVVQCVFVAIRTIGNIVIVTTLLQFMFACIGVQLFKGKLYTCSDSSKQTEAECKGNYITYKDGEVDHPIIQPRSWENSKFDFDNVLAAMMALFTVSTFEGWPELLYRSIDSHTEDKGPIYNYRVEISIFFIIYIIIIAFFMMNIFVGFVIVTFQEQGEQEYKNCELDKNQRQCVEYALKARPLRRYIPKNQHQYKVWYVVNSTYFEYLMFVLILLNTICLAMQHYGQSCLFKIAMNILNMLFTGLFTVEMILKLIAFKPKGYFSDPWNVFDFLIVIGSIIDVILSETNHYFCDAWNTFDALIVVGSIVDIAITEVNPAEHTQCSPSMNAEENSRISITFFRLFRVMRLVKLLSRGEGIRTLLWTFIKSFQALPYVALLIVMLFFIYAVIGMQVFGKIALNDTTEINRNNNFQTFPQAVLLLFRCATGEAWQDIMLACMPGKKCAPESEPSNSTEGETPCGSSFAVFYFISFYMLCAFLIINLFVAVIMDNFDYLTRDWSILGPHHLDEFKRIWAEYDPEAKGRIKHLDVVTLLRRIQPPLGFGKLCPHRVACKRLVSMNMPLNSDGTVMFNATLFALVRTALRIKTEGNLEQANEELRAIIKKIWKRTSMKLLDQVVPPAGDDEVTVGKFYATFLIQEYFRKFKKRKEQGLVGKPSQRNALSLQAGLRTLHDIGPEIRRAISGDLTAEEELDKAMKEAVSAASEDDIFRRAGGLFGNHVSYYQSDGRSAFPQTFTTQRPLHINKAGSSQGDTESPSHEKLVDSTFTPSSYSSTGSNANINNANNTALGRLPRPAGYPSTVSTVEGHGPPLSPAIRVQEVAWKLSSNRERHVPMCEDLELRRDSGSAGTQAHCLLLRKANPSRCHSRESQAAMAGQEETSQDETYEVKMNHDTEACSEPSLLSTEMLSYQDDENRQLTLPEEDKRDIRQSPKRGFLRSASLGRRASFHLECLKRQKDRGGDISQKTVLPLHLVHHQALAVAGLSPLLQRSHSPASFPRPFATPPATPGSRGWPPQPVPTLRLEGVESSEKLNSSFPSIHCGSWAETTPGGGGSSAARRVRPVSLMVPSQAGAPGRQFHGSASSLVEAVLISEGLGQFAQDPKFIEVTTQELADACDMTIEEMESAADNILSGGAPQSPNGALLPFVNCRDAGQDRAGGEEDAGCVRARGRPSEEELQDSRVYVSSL

Heart = test: Increase in coronary flow in Wistar rat Langendorff isolated perfused heart; format: functional, tissue-based
[3] = Protein binding in rat plasma; format: ADME, cell-free; details: read-out: PPB (converted)
Rattus norvegicus [4] = test: Antihypertensive activity in freely moving conscious spontaneously hypertensive rat at assessed as area between curve for reduction in mean arterial pressure at 10 mg/kg, po administered as single dose in morning at end of wake phase by telemetry; format: functional, Artery
Rattus norvegicus [5] = test: Antihypertensive activity in freely moving conscious spontaneously hypertensive rat at assessed as reduction in mean arterial pressure at 10 mg/kg, po administered as single dose in morning at end of wake phase measured after 6 hrs by telemetry; format: functional, Artery
[6] = Oral bioavailability in Wistar rat at 10 mg/kg; format: ADME, organism-based; details: in vivo
[7] = AUC in Wistar rat at 10 mg/kg, po; format: ADME, organism-based; details: in vivo
Rattus norvegicus [8] = test: Antihypertensive activity in freely moving conscious spontaneously hypertensive rat at assessed as time duration for reduction in mean arterial pressure at 10 mg/kg, po administered as single dose in morning at end of wake phase by telemetry; format: functional, Artery
[9] = Solubility in pH 7.0 buffer; format: physicochemical
Cytochrome P450 3A4 [10] = molecular target: T1, Cytochrome P450 3A4 (Homo sapiens, UniProt P08684); test: Inhibition of CYP3A4 in human liver microsomes assessed as reduction in testosterone 6beta-hydroxylation by LC-MS/MS method; format: ADME
T1 sequence (P08684 whole entry): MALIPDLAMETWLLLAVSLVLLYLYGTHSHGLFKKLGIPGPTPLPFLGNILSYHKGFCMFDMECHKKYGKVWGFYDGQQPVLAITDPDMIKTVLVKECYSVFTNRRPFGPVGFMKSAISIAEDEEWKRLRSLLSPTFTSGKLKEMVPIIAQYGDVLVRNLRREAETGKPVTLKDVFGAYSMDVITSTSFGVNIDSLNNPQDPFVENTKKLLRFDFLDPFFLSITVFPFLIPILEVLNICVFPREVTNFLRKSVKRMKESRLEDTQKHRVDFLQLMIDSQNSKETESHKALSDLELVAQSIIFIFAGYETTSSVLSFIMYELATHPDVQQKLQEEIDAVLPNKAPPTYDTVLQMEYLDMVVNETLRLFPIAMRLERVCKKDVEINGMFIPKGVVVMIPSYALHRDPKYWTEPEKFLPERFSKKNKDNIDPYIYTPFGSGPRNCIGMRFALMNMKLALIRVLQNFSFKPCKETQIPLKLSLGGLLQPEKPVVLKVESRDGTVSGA

[11] = Half life in Wistar rat at 10 mg/kg, po or 1 mg/kg, iv; format: ADME, organism-based; details: in vivo
[12] = Distribution coefficient, log D of the compound at pH 7.4; format: physicochemical; details: octanol/water
[13] = Protein binding in human plasma; format: ADME, cell-free; details: read-out: PPB
[14] = Clearance in Wistar rat at 10 mg/kg, po or 1 mg/kg, iv; format: ADME, organism-based; details: in vivo
[15] = Cmax in Wistar rat at 10 mg/kg, po; format: ADME, organism-based; design: dose 10 mg/kg, route oral; details: in vivo
Cytochrome P450 2C9 = Cytochrome P450 2C9 (Homo sapiens, UniProt P11712); test: Inhibition of CYP2C9 in human liver microsomes assessed as reduction in diclofenac 4'-hydroxylation by LC-MS/MS method; format: ADME
Cytochrome P450 3A4 [16] = molecular target: T1, Cytochrome P450 3A4; test: Time dependent inhibition of CYP3A4 in human liver microsomes assessed as reduction in testosterone 6beta-hydroxylation incubated for 60 mins in presence of NADPH generating system by LC-MS/MS method; format: ADME
[17] = Solubility in 0.1M HCl; format: physicochemical
[18] = molecular target: Voltage-gated inwardly rectifying potassium channel KCNH2 (Homo sapiens, UniProt Q12809); test: Inhibition of human ERG expressed in HEK cells by patch clamp assay
[19] = Solubility in Water at pH 4; format: physicochemical
[20] = Volume of distribution at steady state in Wistar rat at 10 mg/kg, po or 1 mg/kg, iv; format: ADME, organism-based; details: in vivo, read-out: Vdss
Cytochrome P450 2D6 = Cytochrome P450 2D6 (Homo sapiens, UniProt P10635); test: Inhibition of CYP2D6 in human liver microsomes assessed as reduction in dextromethorphan-O demethylation by LC-MS/MS method; format: ADME
Cytochrome P450 3A4 [21] = molecular target: T1, Cytochrome P450 3A4; test: Inhibition of CYP3A4 in human liver microsomes assessed as reduction in midazolam 1'-hydroxylation by LC-MS/MS method; format: ADME
[22] = Rattus norvegicus, Wistar, Heart

Compound: CO[C@H]1C[C@@](CCN(C)CCCc2nc3ccccc3[nH]2)(OC(=O)C(C)C)[C@@H](C(C)C)c2ccc(F)cc21
IC50 [1]: 318 nM | IC50 [2]: 403 nM | EC50 (Heart; [22]): 40 nM

Compound: CC(C)C(=O)O[C@]1(CCN(C)CCCc2nc3ccccc3[nH]2)C[C@@H](OCc2ccccc2)c2cc(F)ccc2[C@@H]1C(C)C
IC50 [1]: 132 nM | IC50 [2]: 156 nM | EC50 (Heart; [22]): 20 nM

Compound: CC(C)C(=O)O[C@]1(CCN(C)CCCc2nc3ccccc3[nH]2)C[C@@H](O)c2cc(F)ccc2[C@@H]1C(C)C
IC50 [1]: 107 nM | IC50 [2]: 504 nM | EC50 (Heart; [22]): 134 nM

Compound: CC(C)C(=O)O[C@]1(CCN(C)CCCc2nc3ccccc3[nH]2)C[C@@H]2CCC[C@H]1c1ccccc12
IC50 [1]: 225 nM | IC50 [2]: 648 nM | EC50 (Heart; [22]): 26 nM

Compound: CC(C)C(=O)O[C@@]1(CCN(C)CCCc2nc3ccccc3[nH]2)C[C@H]2CCC[C@@H]1c1ccccc12
IC50 [1]: 184 nM | IC50 [2]: 455 nM | EC50 (Heart; [22]): 22 nM

Compound: CC(C)C(=O)O[C@]1(CCN(C)CCCc2nc3ccccc3[nH]2)CCc2cc(F)ccc2[C@@H]1C(C)C
IC50 [1]: 149 nM | IC50 [2]: 347 nM | EC50 (Heart; [22]): 20 nM

Compound: CCCC[C@@H]1C[C@@](CCN(C)CCCc2nc3ccccc3[nH]2)(OC(=O)COC)[C@@H](C(C)C)c2ccc(F)cc21
IC50 [1]: 193 nM | IC50 [2]: 173 nM | EC50 (Heart; [22]): 23 nM

Compound: CO[C@@H]1C[C@@](CCN(C)CCCc2nc3ccccc3[nH]2)(OC(=O)C(C)C)[C@@H](C(C)C)c2ccc(F)cc21
IC50 [1]: 557 nM | IC50 [2]: 588 nM | EC50 (Heart; [22]): 29 nM

Compound: CC(C)C(=O)O[C@]1(CCN(C)CCCc2nc3ccccc3[nH]2)C[C@@H]2CC[C@H]1c1ccccc12 (racemic)
IC50 [1]: 432 nM | IC50 [2]: 533 nM | EC50 (Heart): 42 nM

Compound: CN(CCCc1nc2ccccc2[nH]1)CC[C@@]1(OC(=O)C2CC2)C[C@@H]2CC[C@H]1c1ccccc12 (racemic)
IC50 [1]: 210 nM | IC50 [2]: 140 nM | EC50 (Heart; [22]): 77 nM

Compound: CC(C)C(=O)O[C@]1(CCN(C)CCCc2nc3ccccc3[nH]2)C[C@@H]2CCC[C@H]1c1ccccc12 (racemic)
IC50 [1]: 217 nM | IC50 [2]: 437 nM | EC50 (Heart): 39 nM

Compound: COCC(=O)O[C@]1(CCN(C)CCCc2nc3ccccc3[nH]2)CCc2cc(F)ccc2[C@@H]1C(C)C [MIBEFRADIL]
ABC (Rattus norvegicus [4]): 437 mmHg.hr | Activity (Rattus norvegicus [5]): 32 mmHg | EC50 (Heart; [22]): 26 nM

More lines, in order of falling IC50 [1], values ahead:

IC50 [1]: 2070 nM | EC50 (Heart; [22]): > 1000 nM
Compound: CC(C)C(=O)O[C@]1(CCN(C)CCCc2nc3ccccc3[nH]2)C[C@@H]2CC[C@H]1c1nccnc12 (racemic)
IC50 [2]: > 4600 nM

IC50 [1]: 398 nM | EC50 (Heart; [22]): 26 nM
Compound: CC(C)C(=O)O[C@@]1(CCN(C)CCCc2nc3ccccc3[nH]2)C[C@H]2CC[C@@H]1c1ccccc12
IC50 [2]: 424 nM

IC50 [1]: 361 nM | EC50 (Heart; [22]): 250 nM
Compound: COCC(=O)O[C@]1(CCN(C)CCCc2nc3ccccc3[nH]2)C[C@@H]2CC[C@H]1c1ccccc12 (racemic)
IC50 [2]: 748 nM

IC50 [1]: 350 nM | EC50 (Heart): > 150 nM
Compound: CC(C)C(=O)O[C@]1(CCN(C)CCCc2nc3ccccc3[nH]2)C[C@@H]2CC[C@H]1c1ccccc12
IC50 [2]: 699 nM

IC50 [1]: 224 nM | EC50 (Heart; [22]): > 300 nM
Compound: CO[C@]1(CCN(C)CCCc2nc3ccccc3[nH]2)C[C@@H]2CC[C@H]1c1ccccc12 (racemic)
IC50 [2]: 2670 nM

IC50 [1]: 207 nM
Compound: COCC(=O)O[C@]1(CCN(C)CCCc2nc3ccccc3[nH]2)CC(C)(C)c2cc(F)ccc2[C@@H]1C(C)C
IC50 [2]: 434 nM

IC50 [1]: 113 nM | EC50 (Heart; [22]): 16 nM
Compound: CC(C)C(=O)O[C@]1(CCN(C)CCCc2nc3ccccc3[nH]2)C[C@H](OCc2ccccc2)c2cc(F)ccc2[C@@H]1C(C)C
IC50 [2]: 225 nM

fraction unbound [3]: 0.002 | bioavailability [6]: 7% | IC50 [1]: 84 nM | AUC [7]: 198 ng·h/mL | solubility [9]: 119 µg/mL (≈ 236 µM) | IC50 (Cytochrome P450 3A4 [10]): 5500 nM | half-life [11]: 2.2 h | logD [12]: 2.7 | fraction unbound [13]: < 0.001 | clearance [14]: 58 mL/min/kg | Cmax [15]: 64 ng/mL | IC50 (Cytochrome P450 2C9): 32000 nM | IC50 (Cytochrome P450 3A4 [16]): 34000 nM | solubility [17]: 681 µg/mL (≈ 1350 µM) | solubility [19]: 734 µg/mL (≈ 1460 µM) | Vd [20]: 7.1 L/kg | IC50 (Cytochrome P450 2D6): 1400 nM | IC50 (Cytochrome P450 3A4 [21]): 3000 nM | EC50 (Heart; [22]): 7 nM
Compound: COc1cccc2nc(CCCN(C)CC[C@]3(OC(=O)C(C)C)C[C@H]4CCC[C@@H]3c3ccccc34)[nH]c12
ABC (Rattus norvegicus [4]): 377 mmHg.hr | Activity (Rattus norvegicus [5]): 35 mmHg | Time (Rattus norvegicus [8]): 24 h | IC50 [18]: < 400 nM | IC50 [2]: 387 nM

IC50 [1]: 76 nM | EC50 (Heart; [22]): 38 nM
Compound: CC(C)C(=O)O[C@]1(CCN(C)CCCc2nc3ccccc3[nH]2)C[C@H](O)c2cc(F)ccc2[C@@H]1C(C)C
IC50 [2]: 426 nM
